In general, IC50 refers to the concentration needed to halve the response being measured. In general, pIC50 refers to the negative decadic logarithm of the IC50, by convention in mol/L.

The results in this text go back to ChEMBL document CHEMBL5380873, “Discovery of Potent Tetrazole Free Fatty Acid Receptor 2 Antagonists” (J Med Chem, 2023).

Series [1] deals with Neutrophil. Nature of the series: Inhibition of propionate-induced cell migration in human peripheral neutrophil at 0.4 to 1 uM preincubated with compound for 30 mins followed by propionate addition and measured after 1 hrs by ATPlite luminescence assay. Format: functional, cell-based. The following applies: dose 0.4-1 µM, time 90.0 min.
Series [2] in a line: Inhibition of propionate-induced respiratory burst in human peripheral neutrophil assessed as effect on luminol-amplifies chemiluminescence by measuring fold change at 0.4 to 1 uM preincubated with compound for 30 mins followed by propionate addition and measured immediately by microplate reader based analysis relative to CATPB. Format: functional. The following applies: dose 0.4-1 µM, 0.5 h.

In series [3] the test system is Neutrophil. Nature of the series: Inhibition of fMLP-induced cell migration in human peripheral neutrophil at 10 uM. Format: functional, cell-based.
Series [4] has as its system Neutrophil. Nature of the series: Inhibition of propionate-induced respiratory burst in human peripheral neutrophil assessed as effect on luminol-induced chemiluminescence at 0.4 to 1 uM preincubated with compound for 30 mins followed by propionate addition and measured immediately by microplate reader based analysis. Format: functional, cell-based. To be noted: dose 0.4-1 µM.

Series [5] can be described thus: Chemical stability of compound in PBS buffer at pH 7.4 measured after 10 days by HPLC analysis. Format: physicochemical. The following applies: time 10 day, read-out: Stability.
Series [6] relates to Neutrophil. Nature of the series: Inhibition of fMLP-induced respiratory burst in human peripheral neutrophil at 10 uM. Format: functional, cell-based.
The target in series [7] is T1, Free fatty acid receptor 3 (Homo sapiens) (UniProt O14843).
T1 sequence (whole entry): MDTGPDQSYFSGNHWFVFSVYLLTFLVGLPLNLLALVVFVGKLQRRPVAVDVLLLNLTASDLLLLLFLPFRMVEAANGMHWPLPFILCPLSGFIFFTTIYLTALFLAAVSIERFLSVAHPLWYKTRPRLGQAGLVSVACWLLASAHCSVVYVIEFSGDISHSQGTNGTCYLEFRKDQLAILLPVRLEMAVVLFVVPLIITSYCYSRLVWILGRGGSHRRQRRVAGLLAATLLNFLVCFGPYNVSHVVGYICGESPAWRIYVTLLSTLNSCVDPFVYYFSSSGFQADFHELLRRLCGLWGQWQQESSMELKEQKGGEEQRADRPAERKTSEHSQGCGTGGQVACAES
Nature of the series: Antagonist activity at human FFA3 expressed in Flp-In-T-REx-293 cells co-expressing eYFP assessed as inhibition of propionate-induced cAMP accumulation at 10 uM preincubated with compound for 20 mins followed by propionate addition and measured after 25 mins in the presence of forskolin by TR-FRET analysis. Format: functional, cell-based. To be noted: time 45.0 min.

The target of series [8] is T2, Free fatty acid receptor 2 (Homo sapiens, UniProt O15552).
T2 sequence (O15552 whole entry): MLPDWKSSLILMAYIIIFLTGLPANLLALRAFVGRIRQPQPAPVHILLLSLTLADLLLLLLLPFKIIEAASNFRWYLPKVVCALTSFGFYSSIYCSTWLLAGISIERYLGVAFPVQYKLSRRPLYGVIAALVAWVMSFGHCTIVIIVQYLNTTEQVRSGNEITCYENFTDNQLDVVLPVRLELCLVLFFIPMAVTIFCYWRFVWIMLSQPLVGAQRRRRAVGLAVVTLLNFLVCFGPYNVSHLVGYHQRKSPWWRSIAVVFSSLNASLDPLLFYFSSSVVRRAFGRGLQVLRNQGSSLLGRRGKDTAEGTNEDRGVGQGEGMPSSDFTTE
Nature of the series: Inverse agonist activity at human GPR43 expressed in Glosensor cells assessed as increase in forskolin-induced cAMP level preincubated with compound for 5 mins followed by forskolin addition and measured after 15 mins by luminescence based analysis. Format: functional, cell-based.

The target in series [9] is T3, Free fatty acid receptor 2 (Homo sapiens) (UniProt O15552).
T3 sequence (whole entry): T2 sequence (O15552 whole entry)
Nature of the series: (§1) Antagonist activity at human FFA2 expressed in Flp-In-T-REx-293 cells co-expressing eYFP assessed as inhibition of propionate-induced cAMP accumulation preincubated with compound for 20 mins followed by propionate addition and measured after 25 mins in the presence of forskolin by TR-FRET analysis. Format: functional, cell-based. The following applies: time 45.0 min. (In general: Changes in cAMP serve as a functional read-out for many G protein-coupled receptors.)

The target in series [10] is T3, Free fatty acid receptor 2 (Homo sapiens). Nature of the series: (§2) Antagonist activity at human FFA2 expressed in Flp-In-T-REx-293 cells co-expressing eYFP assessed as inhibition of [35S]GTPgammaS incorporation preincubated for 15 mins followed by [35S]GTPgammaS addition and measured after 60 min by liquid scintillation spectroscopic analysis. Format: functional, cell-based. The following applies: time 75.0 min. (GTPγS is a poorly hydrolysed GTP analogue; its binding reports G protein activation.)

The target is the same in series [11]. Nature of the series: Potency index, ratio of CATPB pIC50 to test compound pIC50 for antagonist activity at human FFA2.
Series [12] has as its target T2, Free fatty acid receptor 2. The series is described as §1. In kind it is functional, cell-based.
In series [13] the target is T2, Free fatty acid receptor 2. The description is as §2. In kind it is functional, cell-based.

Calls of active or inactive are those of the source. No cut-off for these calls is given here.

In the case of `COc1cccc(CC(=O)N[C@@H](Cc2ccc(C(F)(F)F)cc2)Cc2nnn[nH]2)c1`, the inhibition entry with Neutrophil [1] and in the series with Neutrophil [4] was “Active” each time. Moreover, the “fold change (FC)” value in series [2] came out at 8. Besides, the inhibition result in the series with Neutrophil [3] and with Neutrophil [6] was “inactive” each time. In addition, the remaining at 240 h in series [5] is greater than 95%. Moreover, the outcome in series [7] was inactive.
Take `O=C(Cc1cncc(Br)c1)N[C@@H](Cc1ccc(C(F)(F)F)cc1)Cc1nnn[nH]1`: the remaining at 240 h in series [5] was greater than 95%.
Regarding `CC1=C(C(=O)Nc2cc(C)cc(C)c2)C(c2ccc(N(C)C)cc2)NC(=O)N1` (stereo unspecified), the IC50 in [8] was roughly 10 µM.
Consider `O=C(Cc1cccc(-c2nnn[nH]2)c1)N[C@@H](Cc1ccc(C(F)(F)F)cc1)Cc1nnn[nH]1`, for which the outcome in series [9] and in series [10] was inactive.
As to `O=C(Cc1cnc[nH]1)N[C@@H](Cc1ccc(C(F)(F)F)cc1)Cc1nnn[nH]1`, the result in series [9] and in series [10] was inactive.
For the compound `Cc1cccc(CC(=O)N[C@@H](Cc2ccc(C(F)(F)F)cc2)Cc2nnn[nH]2)c1`, in series [11], the Ratio pIC50 was greater than 10.
Regarding `N#Cc1cccc(CC(=O)N[C@@H](Cc2ccc(C(F)(F)F)cc2)Cc2nnn[nH]2)c1`, the pIC50 in [12] and in series [13] was greater than 5 in each case.
